Reference: PMC8536644, “Enigmatic mechanism of the N-vinylpyrrolidone hepatocarcinogenicity in the rat” (Archives of Toxicology, 2021)
Several values for one entry are separate records, joined by “and”; a condition that tells them apart may be missing. Equal entries are not always repeated.

Columns and labels:
rat lung cells = experiment: Comet assay in presence of FPG, lung; details: with FPG, 5 days; for TI (%), mean of medians from 2 slides: individual animals
Experimental: Animals were anesthetized by 3.5% isoflurane (approximately 3 min, evaporator Dräger Vapor 19.3) and then killed by cervical dislocation. The liver was removed and its left lateral lobe used for the Comet assay. The remainder of the liver was washed in saline and then in two aliquots shock frozen in liquid nitrogen and stored at − 80 °C for later examinations. Subsequently the lung was removed from the dead animal. Its left lobe was used for the Comet assay and the remainder treated as described above for the liver. Thereafter the femora were removed for the preparation of the bone marrow.
The Comet assay was performed under alkaline conditions according to the principles described by Singh et al. ([1988]) and Tice et al. ([2000]).
Liver and lung cells were obtained essentially as described by Hartmann et al. ([2004]) and by the Japanese Center for the Validation of Alternative Methods (JaCVAM [2009]). Single cells were obtained within 1 h after killing of the animals in order to minimize DNA damage during the preparation.
The organ parts (see above) were washed in mincing buffer (50 mM EDTA in HBSS [without Ca^2+ and Mg^2+] pH 7.5: DMSO 9:1 (v/v), the latter added shortly before use, stored at 4 °C), cut into 1 to 2-mm pieces in ice-cold mincing buffer and transferred to a cell sieve with 70-µm pores. The viability of the cell suspension was evaluated by the Trypan Blue Assay (Strober [2001]).
100 µL of the obtained cell suspension was mixed at 37 °C with 900 µL Low Melting Agarose (LMA) (0.7% agarose in phosphate-buffered saline [PBS] [Biochrom, Berlin, Germany] without Ca^2+ and Mg^2+). 100 µL of this mixture was transferred to a slide, which had been coated with Normal Melting Agarose (NMA) (0.6% agarose in PBS without Ca^2+ and Mg^2+). The slides were protected with a cover slip and the agarose was hardened at approximately 4 °C. The cover slips were then removed and the slides put over night at 4 °C into lysis buffer (2.5 M NaCl, 125 mM NaOH, 127 mM EDTA, 10 mM Tris/NaOH, pH 10; 1% Triton X-100 and 10% DMSO (v/v), the latter two added before use) in order to lyse the cell membrane, nuclear membrane and remove the histone.
The then following procedures were performed in a shaded room to minimize UV-mediated DNA damage during the procedures.
Those slides which were destined to be treated with the DNA base excision repair enzyme FPG (Sigma Aldrich, Steinheim, Germany) were washed (3 times for 5 min) with FPG buffer (0.04 M HEPES, 0.5 mM EDTA, 0.1 M KCl, pH 8; add shortly before use bovine serum albumin [BSA] to a final concentration of 0.02%). Subsequently 50 µL FPG-enzyme-buffer (prepared shortly prior to use by 30-fold dilution of the following suspension in FPG buffer: 7 µL FPG-enzyme (14 U) and 70 µL glycerol in 623 µL FPG-Puffer, stored at − 80 °C) was pipetted on the slide which was covered with a cover slide and incubated for 30 min at 37 °C while being placed on a humid filter paper. After hardening of the agarose cover slips were removed.
Remaining lysis buffer or FPG buffer was removed by immersing/washing the slides in PBS (without Ca^2+ and Mg^2+).

CYP1A = experiment: EROD inhibition control in Aroclor 1254-induced rat liver microsomes; assay type: biochemical; details: for EROD enzyme activity: 0 µM control 821.5 ± 54.9
Experimental: For determination of the enzyme activities in triplicates, 85 µL master mix (100 mM TrisHCl pH 7.5, 2 mM 5’AMP, 5 mM G-6-P, 10 U G-6-P-DH, 10 mM Dicumarol, 10 mM MgCl2, either 2 µM EROD or 10 µM PROD or 5 µM BROD) was added to 10 µL microsomal fraction (1 mg protein/mL). The reaction was started by the addition of 5 µL 2 mM NADPH (dissolved in 100 mM TrisHCl pH 7.5) followed by incubation at 37 °C for 16 min. The activity was determined by measuring the increase of the fluorescence (excitation at 550 nm, emission at 585 nm) due to resorufin formation compared with resorufin standards, which had been prepared by dissolving tenfold concentrated solutions in DMSO, which were then diluted tenfold in 100 mM TrisHCl pH 7.5.
As a method control the described AROD assay was performed with microsomal fractions derived from liver and lung of male Wistar rats which had been treated i.p. for 5 days with aroclor 1254 (500 mg/kg bw). These control assays were performed in presence of 1 μM, 10 μM or 100 μM NVP, respectively, in order to check for potential interactions of NVP with the substrate turnover in the AROD assay.

rat liver = experiment: Liver histology, hematoxylin–eosin staining; assay type: in vivo
Experimental: HE staining was performed essentially according to Romeis ([2010]), specifically under the following conditions:
Parts of the frozen (− 80 °C) livers from rats treated with 0, 5, 10 or 20 ppm NVP were thawed in formalin (specifically 4% formaldehyde in sodium phosphate buffer pH 7) and left therein for fixation at least 7 days. Subsequently the livers were cut into approximately 4 mm-thick slices, which were dehydrated in increasingly concentrated ethanol (70–100%), washed in xylene and then transferred into fluid paraffin. The livers were put into kassettes with the parts which were foreseen for cutting toward the bottom, the kassettes filled with paraplast (melting point 58–62 °C) and the material left for hardening. From the embedded livers 3- to 6 µm-thick slices were cut by a rotation microtome, then stretched (in a water bath at 45 °C), transferred to a slide and dried overnight at 50 °C. Subsequently the slices were stained with HE and covered with Pertex. The slices were then microscopically evaluated. Structural changes were classified into severity grades 0, 1, 2 and 3.

BALB/3T3 cells = system: BALB/3T3 cells; parameters: method as in MAK [1994]; details: ref MAK [1994]; cited from earlier work
Salmonella strains = details: three independent tests in four Salmonella strains; ref MAK [1994]; cited from earlier work

Compound: C=CN1CCCC1=O [NVP, N-vinylpyrrolidone]
- Hedgehogs/100 cells (mean ± SD) (rat lung cells; female, 5 ppm inhalation): 3 ± 2 /100 cells
- TI (%) (mean ± SD) (rat lung cells; female, 5 ppm inhalation): 7.8 ± 1.30%
- TI (%), mean of medians from 2 slides (rat lung cells; female, 5 ppm inhalation): 8.6% and 7.0% and 6.8% and 10.1% and 7.1% and 7.3%
- Hedgehogs/100 cells (mean ± SD) (rat lung cells; female, 10 ppm inhalation): 1 ± 1 /100 cells
- TI (%) (mean ± SD) (rat lung cells; female, 10 ppm inhalation): 7.2 ± 1.81%
- TI (%), mean of medians from 2 slides (rat lung cells; female, 10 ppm inhalation): 8.7% and 8.1% and 7.9% and 8.4% and 6.0% and 4.0%
- Hedgehogs/100 cells (mean ± SD) (rat lung cells; female, 20 ppm inhalation): 3 ± 1 /100 cells
- TI (%) (mean ± SD) (rat lung cells; female, 20 ppm inhalation): 7.4 ± 2.90%
- TI (%), mean of medians from 2 slides (rat lung cells; female, 20 ppm inhalation): 6.2% and 8.6% and 10.2% and 2.3% and 7.7% and 9.7%
- Hedgehogs/100 cells (mean ± SD) (rat lung cells; male, 5 ppm inhalation): 2 ± 2 /100 cells
- TI (%) (mean ± SD) (rat lung cells; male, 5 ppm inhalation): 6.4 ± 0.69%
- TI (%), mean of medians from 2 slides (rat lung cells; male, 5 ppm inhalation): 6.1% and 7.5% and 6.6% and 5.5% and 6.5%
- Hedgehogs/100 cells (mean ± SD) (rat lung cells; male, 10 ppm inhalation): 4 ± 4 /100 cells
- TI (%) (mean ± SD) (rat lung cells; male, 10 ppm inhalation): 7.9 ± 3.21%
- TI (%), mean of medians from 2 slides (rat lung cells; male, 10 ppm inhalation): 12.0% and 3.6% and 6.0% and 7.3% and 7.2% and 11.4%
- Hedgehogs/100 cells (mean ± SD) (rat lung cells; male, 20 ppm inhalation): 1 ± 1 /100 cells
- TI (%) (mean ± SD) (rat lung cells; male, 20 ppm inhalation): 3.9 ± 0.72%
- TI (%), mean of medians from 2 slides (rat lung cells; male, 20 ppm inhalation): 3.8% and 3.5% and 5.2% and 3.6% and 3.3% and 4.2%
- EROD enzyme activity (CYP1A; 1 µM NVP): 859.9 ± 14.1 pmol/min/mg protein
- EROD enzyme activity (CYP1A; 10 µM NVP): 827.9 ± 13.6 pmol/min/mg protein
- EROD enzyme activity (CYP1A; 100 µM NVP): 858.9 ± 33.9 pmol/min/mg protein
- Inhibition of EROD activity (CYP1A; 1, 10 or 100 µM NVP): does not lead to inhibition
- Males without centrilobular hepatocellular fatty change (rat liver; 5 ppm, three males examined): two of three
- Animals with low-grade (grade 1) centrilobular hepatocellular fatty change (rat liver; 10 ppm, males): two of three
- Animals with grade 1 centrilobular hepatocellular fatty change (rat liver; 20 ppm, females): one of three
- Animals with grade 2 centrilobular hepatocellular fatty change (rat liver; 20 ppm, females): one
- Animals with high-grade (grade 3) centrilobular hepatocellular fatty change (rat liver; 20 ppm, males): two of three
- BALB/3T3 cell transformation test result (BALB/3T3 cells): negative
- Ames Salmonella back mutation test result (Salmonella strains): negative
